Reference: patent publication US11834678B2, “Hematopoietic stem cells with improved properties” (Yeda Research and Development Co. Ltd., priority 2017, dated 2023)

Tests used:
HSPCs = assay: HSPC levels in bone marrow after 6 days of NAC injections (FACS); assay type: in vivo; settings: CD74−/− mice; NAC 50 mg/kg i.p. for 6 days; compared to WT levels
Experimental: FIGS. 8A-L illustrate that CD74 regulates stem cell retention. (FIGS. 8A-C) FACS staining of HSPCs from WT and CD74^−/− mice for Ki-67. Results are represented as: (FIG. 8A) Percentage of Ki-67^+ from CD34^−LSK and percentage of Ki-67^+ from CD34^+ LSK, (FIG. 8B) percentage of CD34−LSK Ki-67− and CD34−LSK Ki-67+ from total BM cells and (FIG. 8C) percentage of CD34^+ LSK Ki-67^− and CD34^+ LSK Ki-67^+ from total BM cells, n=15. (FIGS. 8D-E) Mice were fed with 0.8 mg/ml BrdU in the drinking water for 3 days and BrdU incorporation was analyzed by FACS. Results are represented as: (FIG. 8D) % BrdU^+ in LSK; (FIG. 8E) percentage of LSK BrdU^− and percentage of LSK BrdU^+ from total BM cells, n=12-14. (FIG. 8F-G) FACS staining of HSPCs from WT and CD74^−/− mice for ROS. Results are represented as number of ROS high in million cells, n=9. (FIGS. 8H-I) percentage of HSPCs after 6 days of NAC injections mg/ml, n=5. (FIG. 8J) FACS staining of HSPCs from WT and CD74^−/− mice for Annexin V, n=10-12, and after 24 hours in hypoxia (FIG. 8K), n=4-5. (FIG. 8L) Ratio of Annexin V+CD74^−/− to WT of HSPCs in hypoxia and normoxic conditions. Bars show SEM. Unpaired t-test two tailed *<0.05 **<0.01.
Electron transfer along the mitochondrial respiration chain induces the formation of ROS (Kobayashi and Suda, 2012). […]

HSPC = settings: after a single injection; cited from earlier work

Compound	levels of HSPCs (HSPCs)	time to mobilization of HSPC (HSPC)
CC(=O)N[C@@H](CS)C(=O)O [NAC, N-acetyl-L-cystein]	partially reduced	
Zymosan		≤ 1 h
